Experimental data published in patent US20230220331A1, “TEMPORARY TREATMENT MEDIUM, TREATMENT KIT, EMBRYOGENESIS ARREST INHIBITOR, EMBRYOGENESIS ARREST INHIBITORY METHOD, DEVELOPMENTAL ENGINEERING PRODUCT PREPARATION METHOD, TRANSPLANTATION METHOD, THERAPEUTIC METHOD, AND DEVELOPMENTAL ENGINEERING PRODUCT” (priority 2020, published 2023).

Experiments:
[1] = system: early embryos of the inbred mouse B6J strain; assay: Recovery of inbred mouse early embryos frozen and thawed multiple times (Treatment Example 15); type: cell-based; conditions: frozen TWICE
Description: Then, in the same manner as in Treatment Example 9 according to Example 1, it was investigated whether or not the early embryos of the inbred mouse B6J strain, not the normal mice, could recover after frozen and thawed at multiple times.

[2] = system: Early embryos of the heterologous mouse Mus caroli; assay: ES cell establishment from electroporated early embryos (Treatment Example 4); type: cell-based; conditions: Mus caroli early embryos cultured in Y-27632 medium, then electroporated
Method: (§1) 1. Up to 3 hours before TAKE, Y-27632-added mWM medium (Y-27632 final concentration 10 μM, an example of the “temporary treatment medium” of this example), Y-27632-free mWM medium (an example of “normal medium” of this example) were dropped into 35 mm Petri dishes by 5 drops, respectively, to prepare drops covered with paraffin oil.
(§2) 2. Two-cell stage embryos were collected from the drops or thawed, placed in Y-27632-added mWM medium, and cultured for about 30 minutes to 1 hour (temporary treatment).
(§3) 3. After that, TAKE was performed.
(§4) 4. After TAKE, the embryos were placed in Y-27632-added mWM medium and cultured for about 30 minutes to 1 hour (temporary treatment). Then, the embryos were placed in Y-27632-free mWM medium and cultured at 37° C. under 5% CO2 and 5% O2 conditions until transplantation.
(§5) 5. Then, if necessary, the culture was continued in the Y-27632-free mWM medium to establish ES cells.
(§6) When Mus caroli ES cells were knocked out of the Tyr gene by genome editing and a part of them was analyzed, it was shown that NHEJ occurred and heterologous mouse ES cells were established.

inbred mouse B6J embryos = assay: Generation of Flox inbred mice (individuals) by one-step method, high concentration ssODN (Treatment Example 11); type: cell-based; conditions: floxed MK2 1STEP (HIGH CONCENTRATION)
Method: Furthermore, in the same manner, the individual production is performed in an inbred mouse B6J strain by an electroporation method (1STEP method) by using a high concentration ssODN.

[3] = system: frozen embryos of the inbred mouse B6J strain (blastocyst stage); assay: Surviving embryos after re-freezing and thawing of blastocysts (Treatment Example 9); type: cell-based
Method: Then, in the early embryos of the inbred mouse B6J strain, an example of using frozen embryos preserved at the blastocyst stage, using the normal medium or the temporary treatment medium according to the present embodiment before and after the manipulation, and comparing whether the occurrence changes is described. In this treatment example, as the temporary treatment medium, a Y-27632-added mWM medium so as to be 10 μM was used (in this example, it is referred to as “Y+ medium”). In addition, as the normal medium, an mWM medium to which Y-27632 was not added was used (In this example, it is referred to as “Y− medium”). As a treatment, the prepared frozen embryos were thawed and developed as they were in Y− medium until the blastocyst stage. Then, half of the embryos that had developed up to the blastocyst were transferred to Y+ medium and placed for 30 minutes. After that, the embryos were transferred to Y− medium again and placed for 30 minutes. Then, the embryos treated with Y+ medium and the embryos not treated were frozen in one tube, respectively. Both tubes of embryos were then thawed and placed in the normal medium for 10 minutes. Then, the embryos were evenly divided into Y+ medium and Y− medium, respectively, and placed for 1 hour. Then, again, each tube of embryos was returned to Y− medium in each tube and the embryos were observed. […]

[4] = system: Early embryos of the heterologous inbred SPR2 mouse; assay: ES cell establishment from electroporated early embryos (Treatment Example 4); type: cell-based, Mus spretus; conditions: SPR2 early embryos cultured in Y-27632 medium, then electroporated
Method: as §1, §2, §3, §4, §5, §6

[5] = system: two-cell frozen embryo of a heterologous inbred SPR2 mouse; assay: ES cell establishment from SPR2 frozen embryos (Treatment Example 3); type: cell-based, Mus spretus; conditions: 5 SPR2 frozen embryos thawed and cultured to blastocyst in Y-27632 medium
Method: as §5
After thawing a two-cell frozen embryo of a heterologous inbred SPR2 mouse, it was cultured to a blastocyst in the temporary treatment medium containing Y-27632, and an attempt was made to establish ES cells. As a result, ES cells could be efficiently established (5 frozen embryos, 2 strains established). On the other hand, when Y-27632 was not added, no individual production and ES cells were established.

[6] = system: two-cell frozen embryos of heterologous inbred SPR2 mouse; assay: Individual production from frozen eggs of SPR2 (Treatment Example 3); type: cell-based, Mus spretus; conditions: SPR2 frozen 2-cell embryos thawed, 1 hour in Y-27632 medium
Method: 1. Up to 3 hours before TAKE, Y-27632-added mWM medium (Y-27632 final concentration 10 μM, an example of the “temporary treatment medium” of this example), Y-27632-free mWM medium (an example of “normal medium” of this example) were dropped into 35 mm Petri dishes by 5 drops, respectively, to prepare drops covered with paraffin oil. 2. Two-cell stage embryos were collected from the drops or thawed, placed in Y-27632-added mWM medium, and cultured for about 30 minutes to 1 hour (temporary treatment). According to a typical method, in the afternoon when female mice and rats were mated with males with vasoligation and confirmed to be plugged, about 10 each were transplanted into the left and right oviducts or uterus of plug-confirmed mature female mice and rats. In this production example, two-cell frozen embryos of SPR2 were thawed, cultured in a temporary treatment medium containing Y-27632 for 1 hour, and transplanted into the uterus of a pseudopregnant female mouse. […] As a result, frozen embryo-derived individuals (16 transplanted embryos, 6 newborns) were obtained.

[7] = system: early embryos of immunodeficient mouse NOD-scid; assay: Genome editing efficiency of multiple targets (Treatment Example 19); type: cell-based; conditions: Bbox1, IL2RG, 4 target sites
Method: Electroporation (genome editing) of high-concentration RNA-protein mixed with CRISPR-Cas9 at multiple sites (4 sites in total) of a plurality of genes in early embryos of immunodeficient mice, which are extremely difficult to manipulate and prepare, was performed, transplanted into the recipient's uterus, and the offspring were obtained.

[8] = Y+ before freezing and Y+ after thawing, 26 embryos
[9] = Y+ before freezing, Y− after thawing, 26 embryos
[10] = Y− before freezing, Y+ after thawing, 20 embryos
[11] = 16 blastocysts transferred to uterus (3.5 days)

SMILES: C[C@@H](N)[C@H]1CC[C@H](C(=O)Nc2ccncc2)CC1 [Y-27632, trans-4-[(1R)-1-Aminoethyl]-N-4-pyrid inylcyclohexanecarboxamide]
- NUMBER OF RECOVERIES [1]: 24/26
- recoveries % [1]: 92%
- ES cells established [2]: at a high rate
- Flox individuals % (inbred mouse B6J embryos): 16.7%
- NUMBER OF FLOX INDIVIDUALS (inbred mouse B6J embryos): 1/6
- NUMBER OF OUTGROWTH, 24 hours after thawing [3, 8]: (11)
- surviving embryos 3 HOURS AND A HALF AFTER THAWING [3, 8]: 12
- surviving embryos 24 HOURS AFTER THAWING [3, 8]: 24
- surviving embryos IMMEDIENTLY AFTER THAWING [3, 8]: 7
- RECOVERY RATE ([3]; Y+ before freezing and Y+ after thawing, 26 embryos, frozen twice, listed as Y+): 92%
- RECOVERY RATE ([3]; Y+ before freezing and Y+ after thawing, 26 embryos, frozen twice, listed as Y+ medium): up to 92%
- NUMBER OF OUTGROWTH, 24 hours after thawing [3, 9]: (7)
- RECOVERY RATE [3, 9]: 70%
- surviving embryos 3 HOURS AND A HALF AFTER THAWING [3, 9]: 11
- surviving embryos 24 HOURS AFTER THAWING [3, 9]: 14
- surviving embryos IMMEDIENTLY AFTER THAWING [3, 9]: 6
- NUMBER OF OUTGROWTH, 24 hours after thawing [3, 10]: (3)
- RECOVERY RATE [3, 10]: 55%
- surviving embryos 3 HOURS AND A HALF AFTER THAWING [3, 10]: 5
- surviving embryos 24 HOURS AFTER THAWING [3, 10]: 11
- surviving embryos IMMEDIENTLY AFTER THAWING ([3]; Y− before freezing, Y+ after thawing, 20 embryos, Y-27632 10 μM): 3
- ES cells established [4]: at a high rate
- ES cell strains established [5]: 2 strains
- NUMBER OF BIRTHS FEMALE [6, 11]: 4
- NUMBER OF BIRTHS MALE [6, 11]: 2
- NUMBER OF BIRTHS TOTAL (newborns) ([6]; 16 embryos transferred to uterus (3.5 days)): 6
- KO % ([7]; 47 embryos transferred): 57%
- Pups ([7]; 47 embryos transferred): 7
- Pups (KO) ([7]; 47 embryos transferred): 4
- KO % ([7]; 49 embryos transferred): 100%
- Pups ([7]; 49 embryos transferred): 2 (2)
- Pups (KO) ([7]; 49 embryos transferred): 2 (2)
